Consider 34 compounds from patent publication US7312188B2, “Peptide derivatives having β-secretase inhibitory activity” (priority 2003, dated 2007).

Numbered stars: 1 amine (or outer) side, 2 acyl side, 3 side chain; on linkers, the order of the positions; unused ones are H or OH. Square brackets hold non-standard residues; d marks the D form. Apns = amino acid residue of (2S,3S)-3-amino-2-hydroxy-4-phenylbutanoic acid, O=C([C@@H](O)[C@H](Cc1ccccc1)N[*:1])[*:2]; β3hPhe(2R-OH) = O=C([C@H](O)[C@H](Cc1ccccc1)N[*:1])[*:2]

The inhibition is how much of the control response was suppressed.

The first assay deals with T1, recombinant human BACE-1 (rhBACE-1) (Homo sapiens, UniProt P56817).
T1 construct: expressed as only an extracellular region (amino acid 1-460 residues) of recombinant human β-secretase; His tag (C); purchased R&D systems (Minneapolis, Minn.); host or cells: murine myeloma cell line NS0
T1 sequence (P56817 22-460 limits assumed): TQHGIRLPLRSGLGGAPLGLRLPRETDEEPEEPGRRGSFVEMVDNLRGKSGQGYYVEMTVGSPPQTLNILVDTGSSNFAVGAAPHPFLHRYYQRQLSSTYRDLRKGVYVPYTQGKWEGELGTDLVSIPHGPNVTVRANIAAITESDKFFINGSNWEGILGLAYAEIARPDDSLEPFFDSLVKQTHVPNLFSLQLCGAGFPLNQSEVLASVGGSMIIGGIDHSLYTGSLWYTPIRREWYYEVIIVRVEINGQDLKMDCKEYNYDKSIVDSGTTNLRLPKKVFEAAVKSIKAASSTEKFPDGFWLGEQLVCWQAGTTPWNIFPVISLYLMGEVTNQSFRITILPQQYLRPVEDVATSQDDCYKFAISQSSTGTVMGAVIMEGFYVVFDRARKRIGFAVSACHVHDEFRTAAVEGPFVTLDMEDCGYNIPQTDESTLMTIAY
The assay can be described thus: BACE1 inhibitory activity, reverse phase HPLC quantitation of N-terminal fragment of fluorogenic substrate. The following applies: 1 μL of inhibitor solution in DMSO (100 μM) in 50 μL reaction; MES buffer pH 5.0; 37° C., 60 minutes. In kind it is biochemical. The gist of the method:
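rhBACE-1 ectodomain (residues 1-460, C-terminal His tag, NS0-expressed) in MES buffer pH 5.0 with inhibitor (diluted in DMSO, 100 μM solution) and MCA/DNP fluorogenic peptide (250 μM stock), 60 min at 37 °C, TCA stop. N-terminal fragment quantified by reverse-phase HPLC fluorescence (Ex 328/Em 393 nm); inhibition % derived.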
As to `CC(C)C[C@H](NC(=O)[C@@H](NC(=O)[C@@H](N)CCC(=O)O)C(C)C)C(=O)N[C@@H](Cc1ccccc1)[C@@H](O)C(=O)NCc1ccc(Cl)c(Cl)c1` [Example 162], the inhibition at 2 µM came to 71.5%.
Regarding `CC(C)C[C@H](NC(=O)[C@@H](NC(=O)[C@@H](N)CCC(=O)O)C(C)C)C(=O)N[C@@H](Cc1ccccc1)[C@@H](O)C(=O)Nc1cc(Cl)c(OCC(=O)O)c(Cl)c1` [Example 163], the inhibition at 2 µM was 88.3%.
The same measure, in the same setting: for `CC(C)[C@H](NC(=O)[C@@H](N)CCC(=O)O)C(=O)N[C@H](C(=O)N[C@@H](Cc1ccccc1)[C@@H](O)C(=O)Nc1cccc(C(=O)O)c1)c1ccccc1` [Example 164] the value was 64.1%.
In the case of `CC(C)[C@H](NC(=O)[C@@H](N)CCC(=O)O)C(=O)N[C@@H](Cc1cccc2ccccc12)C(=O)N[C@@H](Cc1ccccc1)[C@@H](O)C(=O)Nc1cccc(C(=O)O)c1` [Example 165], the inhibition at 2 µM is 73.7%.
In the case of `CC(C)[C@H](NC(=O)[C@@H](N)CCC(=O)O)C(=O)N[C@@H](CCc1ccccc1)C(=O)N[C@@H](Cc1ccccc1)[C@@H](O)C(=O)Nc1cccc(C(=O)O)c1` [Example 166], the inhibition at 2 µM amounted to 84.9%.
Same read-out and setting: for `CC(C)[C@H](NC(=O)[C@@H](N)CCC(=O)O)C(=O)N[C@@H](Cc1ccc(Cl)cc1)C(=O)N[C@@H](Cc1ccccc1)[C@@H](O)C(=O)Nc1cccc(C(=O)O)c1` [Example 168] the value was 60%; for `CC(C)C[C@H](NC(=O)[C@@H](NC(=O)[C@@H](N)CCC(=O)O)c1ccccc1)C(=O)N[C@@H](Cc1ccccc1)[C@@H](O)C(=O)Nc1cccc(C(=O)O)c1` [Example 169], 61.6%; for `CC(C)[C@H](NC(=O)[C@@H](N)CCC(=O)O)C(=O)N[C@@H](Cc1ccc(Cl)c(Cl)c1)C(=O)N[C@@H](Cc1ccccc1)[C@@H](O)C(=O)Nc1cccc(C(=O)O)c1` [Example 170], 60.5%.
The same measure, in the same setting: for `CC(C)C[C@H](NC(=O)[C@@H](NC(=O)[C@@H](N)CNC(=O)c1cc(N)cc(C(=O)O)c1)C(C)C)C(=O)N[C@@H](Cc1ccccc1)[C@@H](O)C(=O)Nc1cccc(C(N)=O)c1` [Example 171] the value was 91.8%; for `CC(C)C[C@H](NC(=O)[C@@H](NC(=O)[C@@H](N)CNC(=O)c1cccc(O)c1O)C(C)C)C(=O)N[C@@H](Cc1ccccc1)[C@@H](O)C(=O)Nc1cccc(C(=O)O)c1` [Example 172], 89.5%.
Take `CC(C)C[C@H](NC(=O)[C@@H](NC(=O)[C@@H](N)CNC(=O)c1ccc(O)cc1O)C(C)C)C(=O)N[C@@H](Cc1ccccc1)[C@@H](O)C(=O)Nc1cccc(C(=O)O)c1` [Example 173]: the inhibition at 100 µM (stock) is 86.1%.
Consider `CC(C)C[C@H](NC(=O)[C@@H](NC(=O)[C@@H](N)CNC(=O)c1ccco1)C(C)C)C(=O)N[C@@H](Cc1ccccc1)[C@@H](O)C(=O)Nc1cccc(C(=O)O)c1` [Example 174], for which the inhibition at 2 µM worked out at 81.8%.
With `CC(C)C[C@H](NC(=O)[C@@H](NC(=O)[C@@H](N)CNC(=O)c1cc(N)cc(C(=O)O)c1)C(C)C)C(=O)N[C@@H](CSc1ccccc1)[C@@H](O)C(=O)Nc1cccc(C(=O)O)c1` [Example 177], the inhibition at 2 µM came to 98.5%.
On the same count and under the same terms, for `Cc1cc(NC(=O)[C@H](O)[C@H](Cc2ccccc2)NC(=O)[C@H](CC(C)C)NC(=O)[C@@H](NC(=O)[C@@H](N)CCC(=O)O)C(C)C)cc(C)c1OCC(=O)O` [Example 178] the value was 73.4%; for `CC(C)C[C@H](NC(=O)[C@@H](NC(=O)[C@@H](N)CCC(=O)O)C(C)C)C(=O)N[C@@H](Cc1ccccc1)[C@@H](O)C(=O)Nc1cc(C(N)=O)cc(C(=O)O)c1` [Example 179], 83.7%.
Same read-out and setting: for `CNC(=O)c1cc(NC(=O)[C@H](O)[C@H](Cc2ccccc2)NC(=O)[C@H](CC(C)C)NC(=O)[C@@H](NC(=O)[C@@H](N)CCC(=O)O)C(C)C)cc(C(=O)NC)c1` [Example 180] the value was 51.4%.
Take `COC(=O)c1cc(N)cc(C(=O)NC[C@H](N)C(=O)N[C@H](C(=O)N[C@@H](CC(C)C)C(=O)N[C@@H](Cc2ccccc2)[C@@H](O)C(=O)Nc2cccc(C(=O)O)c2)C(C)C)c1` [Example 181]: the inhibition at 100 µM (stock) was found to be 82.5%.
The same measure, in the same setting: for `CC(C)C[C@H](NC(=O)[C@@H](NC(=O)[C@@H](N)CCC(=O)O)C(C)C)C(=O)N[C@@H](Cc1ccccc1)[C@@H](O)C(=O)Nc1cc(Cl)c(OCC(N)=O)c(Cl)c1` [Example 182] the value was 75.7%; for `COC(=O)c1cccc(C(=O)NC[C@H](N)C(=O)N[C@H](C(=O)N[C@@H](CC(C)C)C(=O)N[C@@H](Cc2ccccc2)[C@@H](O)C(=O)Nc2cccc(C(=O)O)c2)C(C)C)c1` [Example 183], 52.1%.
With `CC(C)C[C@H](NC(=O)[C@@H](NC(=O)[C@@H](N)CCC(=O)O)C(C)C)C(=O)N[C@@H](Cc1ccccc1)[C@@H](O)C(=O)Nc1cc(Br)c(OCC(=O)O)c(Br)c1` [Example 184], the inhibition at 100 µM (stock) came to 88.1%.
Consider `CC(C)C[C@H](NC(=O)[C@@H](NC(=O)[C@@H](N)CNC(=O)c1nnn[nH]1)C(C)C)C(=O)N[C@@H](Cc1ccccc1)[C@@H](O)C(=O)Nc1cccc(-c2nnn[nH]2)c1` [Example 185], for which the inhibition at 100 µM (stock) was found to be 100%.
Same read-out and setting: for `CC(C)C[C@H](NC(=O)[C@@H](NC(=O)[C@@H](N)CNC(=O)c1[nH]c(=O)[nH]c(=O)c1F)C(C)C)C(=O)N[C@@H](Cc1ccccc1)[C@@H](O)C(=O)Nc1cccc(-c2nnn[nH]2)c1` [Example 187] the value was 100%; for `CC(C)[C@H](NC(=O)[C@@H](N)CNC(=O)c1cc(O)ccc1O)C(=O)N[C@@H](CC1CCCCC1)C(=O)N[C@@H](Cc1ccccc1)[C@@H](O)C(=O)Nc1cccc(-c2nnn[nH]2)c1` [Example 188], 99.5%.
Consider `CC(C)[C@H](NC(=O)[C@@H](N)CNC(=O)c1[nH]c(=O)[nH]c(=O)c1F)C(=O)N[C@@H](CC1CCCCC1)C(=O)N[C@@H](Cc1ccccc1)[C@@H](O)C(=O)Nc1cccc(-c2nnn[nH]2)c1` [Example 189], for which the inhibition at 100 µM (stock) was 100%.
Consider `CC(C)C[C@H](NC(=O)[C@@H](NC(=O)[C@@H](N)CNC(=O)c1cc(O)ccc1O)C(C)C)C(=O)N[C@@H](Cc1ccccc1)[C@@H](O)C(=O)Nc1cccc(-c2nnn[nH]2)c1` [Example 190], for which the inhibition at 100 µM (stock) was 99.3%.
As to “H-Glu-Val-Leu-Apns-Asp-Ala-Glu-Phe-OH ({H2N-Glu-Val-Leu-Apns}-DAEF-OH; SMILES CC(C)C[C@H](NC(=O)[C@@H](NC(=O)[C@@H](N)CCC(=O)O)C(C)C)C(=O)N[C@@H](Cc1ccccc1)[C@H](O)C(=O)N[C@@H](CC(=O)O)C(=O)N[C@@H](C)C(=O)N[C@@H](CCC(=O)O)C(=O)N[C@@H](Cc1ccccc1)C(=O)O) [Example 18]”, the “Activity (BACE1 inhibition %)” value is given as 53.38%.
Consider “H-Glu-Val-Leu-Pns-Ala-Ala-Glu-Phe-OH (H-EVL[β3hPhe(2R-OH)]AAEF-OH; SMILES CC(C)C[C@H](NC(=O)[C@@H](NC(=O)[C@@H](N)CCC(=O)O)C(C)C)C(=O)N[C@@H](Cc1ccccc1)[C@@H](O)C(=O)N[C@@H](C)C(=O)N[C@@H](C)C(=O)N[C@@H](CCC(=O)O)C(=O)N[C@@H](Cc1ccccc1)C(=O)O) [Example 13]”, for which the “Activity (BACE1 inhibition %)” value amounted to 53.71%.
As to “H-Glu-Val-Leu-Pns-Ala-Glu-Glu-Phe-OH (H-EVL[β3hPhe(2R-OH)]AEEF-OH; SMILES CC(C)C[C@H](NC(=O)[C@@H](NC(=O)[C@@H](N)CCC(=O)O)C(C)C)C(=O)N[C@@H](Cc1ccccc1)[C@@H](O)C(=O)N[C@@H](C)C(=O)N[C@@H](CCC(=O)O)C(=O)N[C@@H](CCC(=O)O)C(=O)N[C@@H](Cc1ccccc1)C(=O)O) [Example 27]”, the “Activity (BACE1 inhibition %)” value is recorded as 78.43%.
Same read-out and setting: for “H-Glu-Val-Leu-Pns-Ala-Phe-Glu-Phe-OH (H-EVL[β3hPhe(2R-OH)]AFEF-OH; SMILES CC(C)C[C@H](NC(=O)[C@@H](NC(=O)[C@@H](N)CCC(=O)O)C(C)C)C(=O)N[C@@H](Cc1ccccc1)[C@@H](O)C(=O)N[C@@H](C)C(=O)N[C@@H](Cc1ccccc1)C(=O)N[C@@H](CCC(=O)O)C(=O)N[C@@H](Cc1ccccc1)C(=O)O) [Example 26]” the value was 60.23%.
As for “H-Glu-Val-Leu-Pns-Asp-Ala-Gln-Phe-OH (H-EVL[β3hPhe(2R-OH)]DAQF-OH; SMILES CC(C)C[C@H](NC(=O)[C@@H](NC(=O)[C@@H](N)CCC(=O)O)C(C)C)C(=O)N[C@@H](Cc1ccccc1)[C@@H](O)C(=O)N[C@@H](CC(=O)O)C(=O)N[C@@H](C)C(=O)N[C@@H](CCC(N)=O)C(=O)N[C@@H](Cc1ccccc1)C(=O)O) [Example 28]”, the “Activity (BACE1 inhibition %)” value turned out to be 55.88%.
Same read-out and setting: for “H-Glu-Val-Leu-Pns-Asp-Ala-Glu-Gly-OH (H-EVL[β3hPhe(2R-OH)]DAEG-OH; SMILES CC(C)C[C@H](NC(=O)[C@@H](NC(=O)[C@@H](N)CCC(=O)O)C(C)C)C(=O)N[C@@H](Cc1ccccc1)[C@@H](O)C(=O)N[C@@H](CC(=O)O)C(=O)N[C@@H](C)C(=O)N[C@@H](CCC(=O)O)C(=O)NCC(=O)O) [Example 45]” the value was 66.79%.
As for “H-Glu-Val-Leu-Pns-Asp-Ala-Glu-OH [Example 32]”, the “Activity (BACE1 inhibition %)” value came out at 71.60%.
As for “H-Glu-Val-Leu-Pns-Asp-Ala-Glu-Phe-OH (H-EVL[β3hPhe(2R-OH)]DAEF-OH; SMILES CC(C)C[C@H](NC(=O)[C@@H](NC(=O)[C@@H](N)CCC(=O)O)C(C)C)C(=O)N[C@@H](Cc1ccccc1)[C@@H](O)C(=O)N[C@@H](CC(=O)O)C(=O)N[C@@H](C)C(=O)N[C@@H](CCC(=O)O)C(=O)N[C@@H](Cc1ccccc1)C(=O)O) [Example 7]”, the “Activity (BACE1 inhibition %)” value is reported as 89.65%.

The assay is the same for the next values; noted with them: pH 5, 100 µM.
Consider “H-Glu-Val-Leu-Pns-Asp-Ala-Gly-Phe-OH [Example 44]”, for which the “Activity (BACE1 inhibition %)” value amounted to 56.30%.
